These are literature values, as cited in patent US20210030671A1, “LIQUID DOSAGE FORMS OF CINACALCET OR SALT THEREOF” (FTF PHARMA PRIVATE LIMITED, priority 2018, published 2021).

Each structure is given as a SMILES string. Counter-ions that a name gives are not always drawn. Like-named read-outs stand apart in the source and are kept apart here.

By solubility is commonly meant the concentration that dissolves in the medium under given conditions.

For the molecule `C[C@@H](NCCCc1cccc(C(F)(F)F)c1)c1cccc2ccccc12` [Cinacalcet hydrochloride], the solubility entry (in methanol or 95% ethanol) is “soluble” and the solubility result (in water) was “slightly soluble”.
Consider `C[C@@H](NCCCc1cccc(C(F)(F)F)c1)c1cccc2ccccc12` [Cinacalcet, N-[1-(R)-(−)-(1-naphthyl)ethyl]-3-[3-(trifluoromethyl)phenyl]-1-aminopropane], for which, for the setting “in water”, the solubility is < 1 µg/mL.
